# In patent US10160762B2, “6-alkyl dihydropyrazolopyrimidinone compounds as PDE2 inhibitors” (Merck Sharp & Dohme Corp., priority 2015, dated 2018):
# Where two headings read alike, the source gives them in different places.
# Biological target: T1, human PDE2A1 (Homo sapiens, UniProt O00408)
# T1 construct: GST; purchased BPS Bioscience (San Diego, Calif.) 60020; host or cells: insect cells
# Assay: IMAP FP PDE assay, human PDE2A1
# Format: biochemical
# In short: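 GST-tagged human PDE2A1 from insect cells; substrate 50 nM FAM-cAMP containing 1000 nM cGMP in Tris pH 7.2/MgCl2/DTT buffer, enzyme giving 20% conversion. 60 min at room temperature, IMAP binding reagent, fluorescence polarization read. Apparent Ki from FP readings using apparent KM 10,000 nM; ten-point 3-fold titrations.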
# [1] = Lab A, read-out: Human PDE2 Ki (nM) Lab A
# [2] = Lab B, read-out: Human PDE2 Ki (nM) Lab B
# T1 sequence (O00408 1-920 isoform O00408-2): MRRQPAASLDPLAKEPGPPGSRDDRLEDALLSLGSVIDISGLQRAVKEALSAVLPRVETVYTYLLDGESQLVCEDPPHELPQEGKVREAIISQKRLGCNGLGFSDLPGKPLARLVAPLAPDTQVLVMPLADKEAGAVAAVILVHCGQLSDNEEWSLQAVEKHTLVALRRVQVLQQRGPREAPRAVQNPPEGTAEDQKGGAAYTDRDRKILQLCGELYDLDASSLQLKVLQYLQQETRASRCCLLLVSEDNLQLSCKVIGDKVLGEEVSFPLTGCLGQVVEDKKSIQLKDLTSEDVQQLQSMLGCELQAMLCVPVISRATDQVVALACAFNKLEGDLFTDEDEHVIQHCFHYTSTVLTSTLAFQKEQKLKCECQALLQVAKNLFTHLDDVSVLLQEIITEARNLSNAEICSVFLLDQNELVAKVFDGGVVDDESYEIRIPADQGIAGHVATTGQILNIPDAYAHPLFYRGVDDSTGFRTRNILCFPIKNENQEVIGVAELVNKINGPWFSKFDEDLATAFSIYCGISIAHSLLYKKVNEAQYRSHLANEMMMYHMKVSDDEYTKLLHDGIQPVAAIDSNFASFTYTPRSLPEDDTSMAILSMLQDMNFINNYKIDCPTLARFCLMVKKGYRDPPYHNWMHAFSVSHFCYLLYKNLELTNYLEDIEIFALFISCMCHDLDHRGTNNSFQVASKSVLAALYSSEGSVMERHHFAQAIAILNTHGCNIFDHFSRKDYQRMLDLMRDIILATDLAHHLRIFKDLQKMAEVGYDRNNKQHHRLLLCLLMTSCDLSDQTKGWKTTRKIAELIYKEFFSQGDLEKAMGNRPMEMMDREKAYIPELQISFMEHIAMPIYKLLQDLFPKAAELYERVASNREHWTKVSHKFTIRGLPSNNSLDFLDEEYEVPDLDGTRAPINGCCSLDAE
Ki [1] [nM],Ki [2] [nM],Structure (SMILES)
35,–,"CCCc1nc2c(c(C)nn2C(C)c2ccc(C(F)(F)F)cc2)c(=O)[nH]1 (stereo not shown) [Example 41, 3-Methyl-6-propyl-1-{1-[4-(trifluoromethyl)phenyl]ethyl}-1,5-dihydro-4H-pyrazolo[3,4-d]pyrimidin-4-one]"
17,–,"Cc1nn(C(C)c2ccc(C(F)(F)F)cc2)c2nc(-c3cnn(C)c3)[nH]c(=O)c12 (stereo not shown) [Example 53, 3-Methyl-6-(1-methyl-1H-pyrazol-4-yl)-1-{1-[4-(trifluoromethyl)phenyl]ethyl}-1,5-dihydro-4H-pyrazolo[3,4-d]pyrimidin-4-one]"
1.4,3.4,"Cc1nc2c(c(CO)nn2C(C)c2ccc(C(F)(F)F)cc2)c(=O)[nH]1 (single isomer, unassigned) [Example 27, (S)- or (R)-3-(Hydroxymethyl)-6-methyl-1-{1-[4-(trifluoromethyl)phenyl]ethyl]-1,5-dihydro-4H-pyrazolo[3,4-d]pyrimidin-4-one]"
–,1.1,"CCC(c1ccc(C(F)(F)F)cc1)n1nc(CO)c2c(=O)[nH]c(C)nc21 (single isomer, unassigned) [Example 132, (R)- or (S)-3-(Hydroxymethyl)-6-methyl-1-(1-(4-(trifluoro-methyl)phenyl)propyl)-1H-pyrazolo[3,4-d]pyrimidin-4(5H)-one]"
428,–,"Cc1nc2c(c(C)nn2C(C)c2ccc(C(F)(F)F)cc2)c(=O)[nH]1 (single isomer, unassigned) [Example 36]"
–,0.36,"Cc1nc2c(c(CO)nn2[C@@H](c2ccc(C(C)(C)C)cc2)C(C)C)c(=O)[nH]1 [Example 160, (R)-1-(1-(4-tert-Butylphenyl)-2-methylpropyl)-3-(hydroxymethyl)-6-methyl-1H-pyrazolo[3,4-d]pyrimidin-4(5H)-one]"
–,205,"Cc1nc2c(c(CO)nn2C(C)c2ccc(C(F)(F)F)c(F)c2)c(=O)[nH]1 (single isomer, unassigned) [Example 12, (R)- or (S)-1-(1-(3-Fluoro-4-(trifluoromethyl)phenyl)ethyl)-3-(hydroxymethyl)-6-methyl-1H-pyrazolo[3,4-d]pyrimidin-4(5H)-one]"
100,105,"Cc1nc2c(c(CO)nn2Cc2ccc(C(F)(F)F)cc2)c(=O)[nH]1 [Example 8, 3-(Hydroxymethyl)-6-methyl-1-[4-(trifluoromethyl)benzyl]-1,5-dihydro-4H-pyrazolo[3,4-d]pyrimidin-4-one]"
–,2,"Cc1nc2c(c(CO)nn2C(c2ccc(OC(F)(F)F)cc2)C2CC2)c(=O)[nH]1 (single isomer, unassigned) [Example 95, (S)- or (R)-1-(Cyclopropyl(4-(trifluoromethoxy)phenyl)methyl)-3-(hydroxymethyl)-6-methyl-1H-pyrazolo[3,4-d]pyrimidin-4(5H)-one]"
4.6,5.9,Cc1nc2c(c(CO)nn2C(C)c2ccc(OC(F)(F)F)cc2)c(=O)[nH]1 (stereo not shown) [Example 4]
23,–,"Cc1nc2c(c(C)nn2C(C)c2ccc(C(F)(F)F)cc2)c(=O)[nH]1 (single isomer, unassigned) [Example 37]"
8.3,17,"Cc1ccc(C(C)n2nc(CF)c3c(=O)[nH]c(C)nc32)cc1 (stereo not shown) [Example 203, 3-(Fluoromethyl)-6-methyl-1-(1-p-tolylethyl)-1H-pyrazolo[3,4-d]pyrimidin-4(5H)-one]"
–,307,"Cc1nc2c(c(CF)nn2C(C)c2ccc(C(C)(C)C)cc2)c(=O)[nH]1 (single isomer, unassigned) [Example 214, (R)- or (S)-1-(1-(4-tert-Butylphenyl)ethyl)-3-(fluoromethyl)-6-methyl-1H-pyrazolo[3,4-d]pyrimidin-4(5H)-one]"
92,–,"Cc1nc2c(c(C(O)C(F)(F)F)nn2C(C)c2ccc(C(F)(F)F)cc2)c(=O)[nH]1 (stereo not shown) [Example 327, 6-Methyl-3-(2,2,2-trifluoro-1-hydroxyethyl)-1-{1-[4-(trifluoromethyl)phenyl]ethyl}-1,5-dihydro-4H-pyrazolo[3,4-d]pyrimidin-4-one]"
–,0.99,"Cc1nc2c(c(CF)nn2C(c2ccc(C(F)(F)F)cc2)C2(C)CC2)c(=O)[nH]1 (single isomer, unassigned) [Example 209]"
43,–,"Cc1nn(C(C)c2ccc(C(F)(F)F)cc2)c2nc(Cc3ccccc3O)[nH]c(=O)c12 (stereo not shown) [Example 31, 6-(2-Hydroxybenzyl)-3-methyl-1-(1-(4-(trifluoromethyl)phenyl)ethyl)-1H-pyrazolo[3,4-d]pyrimidin-4(5H)-one]"
5.4,–,"Cc1nn(C(C)c2ccc(C(F)(F)F)cc2)c2nc(-c3ccco3)[nH]c(=O)c12 (stereo not shown) [Example 49, 6-Furan-2-yl-3-methyl-1-{1-[4-(trifluoromethyl)phenyl]ethyl}-1,5-dihydro-4H-pyrazolo[3,4-d]pyrimidin-4-one]"

Ki [1] [nM],Ki [2] [nM],Structure (SMILES)
11,17,"Cc1nc2c(c(CO)nn2C(C)c2ccc(C(F)(F)F)cc2)c(=O)[nH]1 (stereo not shown) [Example 7, 3-(Hydroxymethyl)-6-methyl-1-(1-(4-(trifluoromethyl)phenyl)ethyl)-1H-pyrazolo[3,4-d]pyrimidin-4(5H)-one]"
~5.9,9.5,"Cc1nc2c(c(C(F)F)nn2C(C)c2ccc(C(F)(F)F)cc2)c(=O)[nH]1 (stereo not shown) [Example 166, 3-(Difluoromethyl)-6-methyl-1-{1-[4-(trifluoromethyl)phenyl]ethyl}-1,5-dihydro-4H-pyrazolo[3,4-d]pyrimidin-4-one]"
1.8,5.3,"Cc1nc2c(c(CO)nn2C(C)c2ccc(C(F)(F)F)c(F)c2)c(=O)[nH]1 (stereo not shown) [Example 1, 1-(1-(3-Fluoro-4-(trifluoromethyl)phenyl)ethyl)-3-(hydroxymethyl)-6-methyl-1H-pyrazolo[3,4-d]pyrimidin-4(5H)-one]"
18,28,"Cc1ccc(C(C)n2nc(CO)c3c(=O)[nH]c(C)nc32)cc1 (stereo not shown) [Example 2, 3-(Hydroxymethyl)-6-methyl-1-(1-p-tolylethyl)-1H-pyrazolo[3,4-d]pyrimidin-4(5H)-one]"
12,–,"Cc1nc(-c2nc3c(c(C)nn3C(C)c3ccc(C(F)(F)F)cc3)c(=O)[nH]2)c(C)o1 (stereo not shown) [Example 54, 6-(2,5-Dimethyl-1,3-oxazol-4-yl)-3-methyl-1-{1-[4-(trifluoromethyl)phenyl]ethyl}-1,5-dihydro-4H-pyrazolo[3,4-d]pyrimidin-4-one]"
–,0.84,"Cc1nc2c(c(C(F)F)nn2C(C)c2ccc(OC(F)F)cc2)c(=O)[nH]1 (single isomer, unassigned) [Example 182, (S)- or (R)-1-(1-(4-(Difluoromethoxy)phenyl)ethyl)-3-(difluoromethyl)-6-methyl-1H-pyrazolo[3,4-d]pyrimidin-4(5H)-one]"
2.7,–,"Cc1nc2c(c(CF)nn2C(C)c2ccc(C(F)(F)F)cc2)c(=O)[nH]1 (stereo not shown) [Example 204, 3-(Fluoromethyl)-6-methyl-1-{1-[4-(trifluoromethyl)phenyl]ethyl}-1,5-dihydro-4H-pyrazolo[3,4-d]pyrimidin-4-one]"
12,–,"COc1ccc(Cc2nc3c(c(CF)nn3C(C)c3ccc(C(F)(F)F)cc3)c(=O)[nH]2)cc1OC (single isomer, unassigned) [Example 223, (S)- or (R)-6-(3,4-Dimethoxybenzyl)-3-(fluoromethyl)-1-(1-(4-(trifluoromethyl)phenyl)ethyl)-1,5-dihydro-4H-pyrazolo[3,4-d]pyrimidin-4-one]"
50,–,"Cc1nn(C(C)c2ccc(C(F)(F)F)cc2)c2nc(CF)[nH]c(=O)c12 (stereo not shown) [Example 51, 6-(Fluoromethyl)-3-methyl-1-{1-[4-(trifluoromethyl)phenyl]ethyl}-1,5-dihydro-4H-pyrazolo[3,4-d]pyrimidin-4-one]"
–,36,"Cc1nc2c(c(CF)nn2C(C)c2ccc(OC(F)(F)F)c(F)c2)c(=O)[nH]1 (single isomer, unassigned) [Example 216, (R)- or (S)-1-(1-(3-Fluoro-4-(trifluoromethoxy)phenyl)ethyl)-3-(fluoromethyl)-6-methyl-1H-pyrazolo[3,4-d]pyrimidin-4(5H)-one]"
17,–,"COc1cccc(-c2nc3c(c(C)nn3C(C)c3ccc(C(F)(F)F)cc3)c(=O)[nH]2)c1 (stereo not shown) [Example 47, 6-(3-Methoxyphenyl)-3-methyl-1-{1-[4-(trifluoromethyl)phenyl]ethyl}-1,5-dihydro-4H-pyrazolo[3,4-d]pyrimidin-4-one]"
–,1.1,"Cc1nc2c(c(CO)nn2[C@@H](C)c2ccc(C(C)(C)C)cc2)c(=O)[nH]1 [Example 157, (S)-1-(1-(4-tert-Butylphenyl)ethyl)-3-(hydroxymethyl)-6-methyl-1H-pyrazolo[3,4-d]pyrimidin-4(5H)-one]"
4.6,12,"Cc1nn(C(C)c2ccc(C(F)(F)F)cc2)c2nc(Cc3cccc(O)c3)[nH]c(=O)c12 (stereo not shown) [Example 30, 6-(3-Hydroxybenzyl)-3-methyl-1-(1-(4-(trifluoromethyl)phenyl)ethyl)-1H-pyrazolo[3,4-d]pyrimidin-4(5H)-one]"
~11,31,"Cc1nc2c(c(C(C)O)nn2C(C)c2ccc(C(F)(F)F)cc2)c(=O)[nH]1 (stereo not shown) [Example 328, 3-(1-Hydroxyethyl)-6-methyl-1-{1-[4-(trifluoromethyl)phenyl]ethyl}-1,5-dihydro-4H-pyrazolo[3,4-d]pyrimidin-4-one]"
197,–,"Cc1nn(C(C)c2ccc(C(F)(F)F)cc2)c2nc(C3CCCC3)[nH]c(=O)c12 (stereo not shown) [Example 40, 6-Cyclopentyl-3-methyl-1-{1-[4-(trifluoromethyl)phenyl]ethyl}-1,5-dihydro-4H-pyrazolo[3,4-d]pyrimidin-4-one]"
–,1.8,"Cc1nc2c(c(C(F)F)nn2C(c2ccc(OC(F)(F)F)c(F)c2)C2CC2)c(=O)[nH]1 (stereo not shown) [Example 193, 1-(Cyclopropyl(3-fluoro-4-(trifluoromethoxy)phenyl)methyl)-3-(difluoromethyl)-6-methyl-1H-pyrazolo[3,4-d]pyrimidin-4(5H)-one]"
